Measurements reported in patent publication US9469650B2, “Melampomagnolide B derivatives” (BOARD OF TRUSTEES OF THE UNIVERSITY OF ARKANSAS, priority 2013, dated 2016).
Read-outs that look alike come from different tables or passages of the source.

Assays:
[1] = tested on: HL-60(TB)
[2] = tested on: MOLT-4; test: panel of 60 human tumor cell lines, growth inhibition (Leukemia); conditions: MOLT-4
[3] = tested on: SK-MEL-2; test: panel of 60 human tumor cell lines, growth inhibition (Melanoma); conditions: SK-MEL-2
[4] = tested on: SK-MEL-28; test: as above; conditions: SK-MEL-28
[5] = tested on: UACC-62; test: as above; conditions: UACC-62
[6] = tested on: SF-539; test: panel of 60 human tumor cell lines, growth inhibition (CNS Cancer); conditions: SF-539
[7] = tested on: SNB-19; test: as above; conditions: SNB-19
[8] = tested on: COLO 205; test: panel of 60 human tumor cell lines, growth inhibition (Colon Cancer); conditions: COLO 205
[9] = tested on: KM12; test: as above; conditions: KM12
[10] = tested on: A498; test: panel of 60 human tumor cell lines, growth inhibition (Renal Cancer); conditions: A498
[11] = tested on: CAKI-1; test: as above; conditions: CAKI-1
[12] = tested on: RXF 393; test: as above; conditions: RXF 393
[13] = tested on: MDA-MB-468; test: panel of 60 human tumor cell lines, growth inhibition (Breast Cancer); conditions: MDA-MB-468
[14] = tested on: IGROV1; test: panel of 60 human tumor cell lines, growth inhibition (Ovarian Cancer); conditions: IGROVI
[15] = tested on: NCI/ADR-RES; test: as above
[16] = tested on: PC-3; test: panel of 60 human tumor cell lines, growth inhibition (Prostate Cancer); conditions: PC-3
[17] = tested on: DU-145; test: as above; conditions: DU-145
[18] = tested on: HOP-92; test: panel of 60 human tumor cell lines, growth inhibition (Non-Small Cell Lung Cancer); conditions: HOP-92
[19] = tested on: NCI-H23; test: as above

With `C=C1C(=O)O[C@H]2[C@H]1CC/C(COC(=O)NC)=C\CC[C@@]1(C)O[C@@H]21` [JVM 2-57] the “Percent Growth” value ([1]; Log10 Concentration −4.0) was −55%, the “Percent Growth” value ([1]; Log10 Concentration −5.0) was −11% and the “Percent Growth” value ([1]; Log10 Concentration −6.0) was 84%. The “Percent Growth” value ([1]; Log10 Concentration −7.0) was 91%, the “Percent Growth” value ([1]; Log10 Concentration −8.0) was 96% and the GI50 ([1]; NCI five dose) was 2280 nM. For the same compound, the TGI ([1]; NCI five dose) was 7.73E−6, the CC50 ([1]; read-out: LC50, NCI five dose) was 77.2 µM and the “Percent Growth” value ([2]; Log10 Concentration −4.0) was −39%. The “Percent Growth” value ([2]; Log10 Concentration −5.0) was 8%, the “Percent Growth” value ([2]; Log10 Concentration −6.0) was 98% and the “Percent Growth” value ([2]; Log10 Concentration −7.0) was 90%. For the same compound, the “Percent Growth” value ([2]; Log10 Concentration −8.0) was 97%, the GI50 ([2]; NCI five dose) was 3.4 µM and the TGI ([2]; NCI five dose) was 1.49E−5. For the same compound, the “Percent Growth” value ([3]; Log10 Concentration −4.0) was −70%, the “Percent Growth” value ([3]; Log10 Concentration −5.0) was 53% and the “Percent Growth” value ([3]; Log10 Concentration −6.0) was 99%. The “Percent Growth” value ([3]; Log10 Concentration −7.0) was 99%, the “Percent Growth” value ([3]; Log10 Concentration −8.0) was 96% and the GI50 ([3]; NCI five dose) was 10.5 µM. The TGI ([3]; NCI five dose) was 2.69E−5, the “Percent Growth” value ([4]; Log10 Concentration −4.0) was −79% and the “Percent Growth” value ([4]; Log10 Concentration −5.0) was 24%. For the same compound, the “Percent Growth” value ([4]; Log10 Concentration −6.0) was 91%, the “Percent Growth” value ([4]; Log10 Concentration −7.0) was 91% and the “Percent Growth” value ([4]; Log10 Concentration −8.0) was 98%. The GI50 ([4]; NCI five dose) was 4.11 µM, the TGI ([4]; NCI five dose) was 1.72E−5 and the “Percent Growth” value ([5]; Log10 Concentration −4.0) was −86%. The “Percent Growth” value ([5]; Log10 Concentration −5.0) was 35%, the “Percent Growth” value ([5]; Log10 Concentration −6.0) was 86% and the “Percent Growth” value ([5]; Log10 Concentration −7.0) was 99%. The “Percent Growth” value ([5]; Log10 Concentration −8.0) was 100%, the GI50 ([5]; NCI five dose) was 5.11 µM and the TGI ([5]; NCI five dose) was 1.95E−5. For the same compound, the “Percent Growth” value ([6]; Log10 Concentration −4.0) was −92%, the “Percent Growth” value ([6]; Log10 Concentration −5.0) was 22% and the “Percent Growth” value ([6]; Log10 Concentration −6.0) was 88%. The “Percent Growth” value ([6]; Log10 Concentration −7.0) was 91%, the “Percent Growth” value ([6]; Log10 Concentration −8.0) was 97% and the GI50 ([6]; NCI five dose) was 3.8 µM. The TGI ([6]; NCI five dose) was 1.57E−5, the “Percent Growth” value ([7]; Log10 Concentration −4.0) was −38% and the “Percent Growth” value ([7]; Log10 Concentration −5.0) was 74%. The “Percent Growth” value ([7]; Log10 Concentration −6.0) was 92%, the “Percent Growth” value ([7]; Log10 Concentration −7.0) was 95% and the “Percent Growth” value ([7]; Log10 Concentration −8.0) was 94%. The GI50 ([7]; NCI five dose) was 16.4 µM, the TGI ([7]; NCI five dose) was 4.59E−5 and the “Percent Growth” value ([8]; Log10 Concentration −4.0) was −94%. For the same compound, the “Percent Growth” value ([8]; Log10 Concentration −5.0) was −8%, the “Percent Growth” value ([8]; Log10 Concentration −6.0) was 95% and the “Percent Growth” value ([8]; Log10 Concentration −7.0) was 97%. For the same compound, the “Percent Growth” value ([8]; Log10 Concentration −8.0) was 103%, the GI50 ([8]; NCI five dose) was 2730 nM and the TGI ([8]; NCI five dose) was 8.33E−6. The CC50 ([8]; read-out: LC50, NCI five dose) was 30.8 µM, the “Percent Growth” value ([9]; Log10 Concentration −4.0) was −92% and the “Percent Growth” value ([9]; Log10 Concentration −5.0) was 73%. For the same compound, the “Percent Growth” value ([9]; Log10 Concentration −6.0) was 99%, the “Percent Growth” value ([9]; Log10 Concentration −7.0) was 97% and the “Percent Growth” value ([9]; Log10 Concentration −8.0) was 98%. For the same compound, the GI50 ([9]; NCI five dose) was 13.8 µM, the TGI ([9]; NCI five dose) was 2.78E−5 and the “Percent Growth” value ([10]; Log10 Concentration −4.0) was −90%. For the same compound, the “Percent Growth” value ([10]; Log10 Concentration −5.0) was 32%, the “Percent Growth” value ([10]; Log10 Concentration −6.0) was 66% and the “Percent Growth” value ([10]; Log10 Concentration −7.0) was 70%. For the same compound, the “Percent Growth” value ([10]; Log10 Concentration −8.0) was 71%, the GI50 ([10]; NCI five dose) was 2970 nM and the TGI ([10]; NCI five dose) was 1.84E−5. For the same compound, the “Percent Growth” value ([11]; Log10 Concentration −4.0) was −97%, the “Percent Growth” value ([11]; Log10 Concentration −5.0) was 10% and the “Percent Growth” value ([11]; Log10 Concentration −6.0) was 82%. The “Percent Growth” value ([11]; Log10 Concentration −7.0) was 89%, the “Percent Growth” value ([11]; Log10 Concentration −8.0) was 96% and the GI50 ([11]; NCI five dose) was 2780 nM. The TGI ([11]; NCI five dose) was 1.25E−5, the “Percent Growth” value ([12]; Log10 Concentration −4.0) was −76% and the “Percent Growth” value ([12]; Log10 Concentration −5.0) was −2%. The “Percent Growth” value ([12]; Log10 Concentration −6.0) was 75%, the “Percent Growth” value ([12]; Log10 Concentration −7.0) was 107% and the “Percent Growth” value ([12]; Log10 Concentration −8.0) was 99%. The GI50 ([12]; NCI five dose) was 2120 nM, the TGI ([12]; NCI five dose) was 9.35E−6 and the “Percent Growth” value ([13]; Log10 Concentration −4.0) was −65%. For the same compound, the “Percent Growth” value ([13]; Log10 Concentration −5.0) was −18%, the “Percent Growth” value ([13]; Log10 Concentration −6.0) was 58% and the “Percent Growth” value ([13]; Log10 Concentration −7.0) was 99%. For the same compound, the “Percent Growth” value ([13]; Log10 Concentration −8.0) was 100%, the GI50 ([13]; NCI five dose) was 1260 nM and the TGI ([13]; NCI five dose) was 5.83E−6. The “Percent Growth” value ([14]; Log10 Concentration −4.0) was −57%, the “Percent Growth” value ([14]; Log10 Concentration −5.0) was 8% and the “Percent Growth” value ([14]; Log10 Concentration −6.0) was 102%. The “Percent Growth” value ([14]; Log10 Concentration −7.0) was 101%, the “Percent Growth” value ([14]; Log10 Concentration −8.0) was 100% and the GI50 ([14]; NCI five dose) was 3.58 µM. For the same compound, the TGI ([14]; NCI five dose) was 1.32E−5, the “Percent Growth” value ([15]; Log10 Concentration −4.0) was −27% and the “Percent Growth” value ([15]; Log10 Concentration −5.0) was 60%. For the same compound, the “Percent Growth” value ([15]; Log10 Concentration −6.0) was 99%, the “Percent Growth” value ([15]; Log10 Concentration −7.0) was 101% and the “Percent Growth” value ([15]; Log10 Concentration −8.0) was 95%. For the same compound, the GI50 ([15]; NCI five dose) was 13.1 µM, the TGI ([15]; NCI five dose) was 4.89E−5 and the “Percent Growth” value ([16]; Log10 Concentration −4.0) was −70%. For the same compound, the “Percent Growth” value ([16]; Log10 Concentration −5.0) was 67%, the “Percent Growth” value ([16]; Log10 Concentration −6.0) was 96% and the “Percent Growth” value ([16]; Log10 Concentration −7.0) was 97%. The “Percent Growth” value ([16]; Log10 Concentration −8.0) was 98%, the GI50 ([16]; NCI five dose) was 13.3 µM and the TGI ([16]; NCI five dose) was 3.08E−5. For the same compound, the “Percent Growth” value ([17]; Log10 Concentration −4.0) was −97%, the “Percent Growth” value ([17]; Log10 Concentration −5.0) was 19% and the “Percent Growth” value ([17]; Log10 Concentration −6.0) was 93%. The “Percent Growth” value ([17]; Log10 Concentration −7.0) was 103%, the “Percent Growth” value ([17]; Log10 Concentration −8.0) was 104% and the GI50 ([17]; NCI five dose) was 3.78 µM. For the same compound, the TGI ([17]; NCI five dose) was 1.45E−5, the “Percent Growth” value ([18]; Log10 Concentration −4.0) was −95% and the “Percent Growth” value ([18]; Log10 Concentration −5.0) was −9%. The “Percent Growth” value ([18]; Log10 Concentration −6.0) was 83%, the “Percent Growth” value ([18]; Log10 Concentration −7.0) was 91% and the “Percent Growth” value ([18]; Log10 Concentration −8.0) was 92%. It also gave a GI50 ([18]; NCI five dose) of 2260 nM, a TGI ([18]; NCI five dose) of 7.90E−6 and a TGI ([19]; NCI five dose) of 2.04E−5. For the same compound, the “Percent Growth” value ([19]; NCI-H 3, Log10 Concentration −4.0) was −68%, the “Percent Growth” value ([19]; NCI-H 3, Log10 Concentration −5.0) was 30% and the “Percent Growth” value ([19]; NCI-H 3, Log10 Concentration −6.0) was 92%. For the same compound, the “Percent Growth” value ([19]; NCI-H 3, Log10 Concentration −7.0) was 95%, the “Percent Growth” value ([19]; NCI-H 3, Log10 Concentration −8.0) was 94% and the GI50 ([19]; NCI-H 3, NCI five dose) was 4.79 µM.
